Assays:
Cannabinoid receptor 2 [1] = molecular target: T1, Cannabinoid receptor 2 (Homo sapiens, UniProt P34972); experiment: Agonist activity at human CB2 receptor expressed in Sf9 cells coexpressing Galpha i2 assessed as Galpha GTPase activity using [gamma-33P]GTP at 100 uM by scintillation counting
Cannabinoid receptor 2 [2] = molecular target: T1, Cannabinoid receptor 2; experiment: Inverse agonist activity at human CB2 receptor expressed in Sf9 cells coexpressing Galpha i2 assessed as Galpha GTPase activity using [gamma-33P]GTP by scintillation counting in presence of CP55940
Cannabinoid receptor 2 [3] = molecular target: T1, Cannabinoid receptor 2; experiment: Antagonist activity at human CB2 receptor expressed in Sf9 cells coexpressing Galpha i2 assessed as Galpha GTPase activity using [gamma-33P]GTP at 100 uM by scintillation counting in presence of 30 nM CP55940; format: functional
Cannabinoid receptor 1 [4] = molecular target: T2, Cannabinoid receptor 1 (Homo sapiens, UniProt P21554); experiment: Agonist activity at human CB1 receptor expressed in Sf9 cells coexpressing Galpha i2 assessed as Galpha GTPase activity using [gamma-33P]GTP at 100 uM by scintillation counting
T2 sequence (P21554 whole entry): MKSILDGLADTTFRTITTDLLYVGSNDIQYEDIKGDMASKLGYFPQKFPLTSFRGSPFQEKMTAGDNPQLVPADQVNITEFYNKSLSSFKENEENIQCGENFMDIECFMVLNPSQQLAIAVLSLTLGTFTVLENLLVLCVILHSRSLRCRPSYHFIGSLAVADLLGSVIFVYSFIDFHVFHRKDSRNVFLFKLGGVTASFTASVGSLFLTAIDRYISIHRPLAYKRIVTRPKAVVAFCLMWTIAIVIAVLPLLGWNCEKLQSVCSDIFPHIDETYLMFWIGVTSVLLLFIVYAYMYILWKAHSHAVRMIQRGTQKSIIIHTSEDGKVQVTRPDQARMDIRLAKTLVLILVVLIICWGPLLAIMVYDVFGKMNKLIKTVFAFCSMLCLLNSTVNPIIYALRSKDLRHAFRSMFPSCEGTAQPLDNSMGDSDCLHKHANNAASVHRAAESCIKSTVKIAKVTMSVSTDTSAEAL

Cannabinoid receptor 1 [5] = molecular target: T2, Cannabinoid receptor 1; experiment: Inverse agonist activity at human CB1 receptor expressed in Sf9 cells coexpressing Galpha i2 assessed as Galpha GTPase activity using [gamma-33P]GTP by scintillation counting in presence of CP55940
Cannabinoid receptor 1 [6] = molecular target: T2, Cannabinoid receptor 1; experiment: Antagonist activity at human CB1 receptor expressed in Sf9 cells coexpressing Galpha i2 assessed as Galpha GTPase activity using [gamma-33P]GTP at 100 uM by scintillation counting in presence of 30 nM CP55940; format: functional
Cannabinoid receptor 2 [7] = molecular target: T1, Cannabinoid receptor 2; experiment: Agonist activity at human CB2 receptor expressed in Sf9 cells coexpressing Galpha i2 assessed as Galpha GTPase activity using [gamma-33P]GTP by scintillation counting
Cannabinoid receptor 2 [8] = molecular target: T1, Cannabinoid receptor 2; experiment: Antagonist activity at human CB2 receptor expressed in Sf9 cells coexpressing Galpha i2 assessed as Galpha GTPase activity using [gamma-33P]GTP by scintillation counting in presence of 30 nM CP55940; format: functional
Cannabinoid receptor 1 [9] = molecular target: T2, Cannabinoid receptor 1; experiment: Agonist activity at human CB1 receptor expressed in Sf9 cells coexpressing Galpha i2 assessed as Galpha GTPase activity using [gamma-33P]GTP by scintillation counting
Homo sapiens = species: Homo sapiens; experiment: Selectivity ratio of EC50 for human CB1 receptor to EC50 for human CB2 receptor

T1 sequence (P34972 whole entry): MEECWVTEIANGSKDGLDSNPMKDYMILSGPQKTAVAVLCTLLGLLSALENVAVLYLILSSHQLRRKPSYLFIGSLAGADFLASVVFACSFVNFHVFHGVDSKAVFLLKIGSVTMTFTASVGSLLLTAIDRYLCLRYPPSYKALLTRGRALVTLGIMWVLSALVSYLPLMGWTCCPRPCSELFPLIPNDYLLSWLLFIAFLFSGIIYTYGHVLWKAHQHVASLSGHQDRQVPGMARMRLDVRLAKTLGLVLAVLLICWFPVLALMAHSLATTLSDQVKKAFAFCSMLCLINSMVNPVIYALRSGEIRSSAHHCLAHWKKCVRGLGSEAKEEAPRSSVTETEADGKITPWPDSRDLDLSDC

Row | Structure (SMILES) | Emax (Cannabinoid receptor 2 [1]) | EC50 (Cannabinoid receptor 2 [2]) | Emax (Cannabinoid receptor 2 [3]) | Emax (Cannabinoid receptor 1 [4]) | EC50 (Cannabinoid receptor 1 [5]) | Emax (Cannabinoid receptor 1 [6]) | EC50 (Cannabinoid receptor 2 [7]) | EC50 (Cannabinoid receptor 2 [8]) | EC50 (Cannabinoid receptor 1 [9]) | Ratio EC50 (Homo sapiens)
1 | CCOc1ccc(Cc2nc3cc(C(=O)N(CC)CC)ccc3n2CCCCCCCCCCN(C)C)cc1 | 1% | 31.6 µM | 60% | -55% | 25.1 µM | – | – | – | – | –
2 | Cc1ccc(Cn2nc(C(=O)NC3C4(C)CCC(C4)C3(C)C)cc2-c2ccc(Cl)c(C)c2)cc1 (stereo not given) | -3% | – | 9% | – | – | – | – | – | – | –
3 | Cc1c(C(=O)NN2CCCCC2)nn(-c2ccc(Cl)cc2Cl)c1-c1ccc(I)cc1 | – | – | – | -84% | – | -8% | – | – | – | –
4 | CCOc1ccc(Cc2nc3cc(C(=O)N(CC)CC)ccc3n2CCCCCCCCCCN(C)CCCCCCCCCCn2c(Cc3ccc(OCC)cc3)nc3cc(C(=O)N(CC)CC)ccc32)cc1 | -11% | 6.61 µM | -33% | -97% | 6.31 µM | – | – | – | – | –
5 | CCOc1ccc(Cc2nc3cc(C(=O)NCCCN(C)CCCNC(=O)c4ccc5c(c4)nc(Cc4ccc(OCC)cc4)n5CCC(C)C)ccc3n2CCC(C)C)cc1 | -11% | 2.88 µM | -32% | -83% | 17.4 µM | – | – | – | – | –
6 | COc1ccc(C(=O)c2c(C)n(CCN3CCOCC3)c3cc(I)ccc23)cc1 | 5% | 0.603 µM | 15% | – | – | – | – | – | – | –
7 | CCOc1ccc(Cc2nc3cc(C(=O)OC)ccc3n2CCC(C)C)cc1 | 37% | – | 121% | -3% | – | 98% | 295 nM | – | – | –
8 | CCOc1ccc(Cc2nc3cc(C(=O)N(CC)CC)ccc3n2CCCN(C)C)cc1 | 106% | – | 69% | -3% | – | 95% | – | 12.6 µM | – | –
9 | CCOc1ccc(Cc2nc3cc(C(=O)N(CC)CC)ccc3n2CCCN(C)CCCn2c(Cc3ccc(OCC)cc3)nc3cc(C(=O)N(CC)CC)ccc32)cc1 | -2% | 12 µM | 5% | -43% | 34.7 µM | – | – | – | – | –
10 | CCOc1ccc(Cc2nc3cc(C(=O)N(CC)CC)ccc3n2CCC(C)C)cc1 | 192% | – | 167% | 48% | – | – | – | – | 3240 nM | –
11 | CCOc1ccc(Cc2nc3cc(C(=O)NCCCCCCCCCCN(C)CCCCCCCCCCNC(=O)c4ccc5c(c4)nc(Cc4ccc(OCC)cc4)n5CCC(C)C)ccc3n2CCC(C)C)cc1 | 3% | 16.6 µM | 28% | -42% | 25.7 µM | – | – | – | – | –
12 | CCOc1ccc(Cc2nc3cc(C(=O)NCCCCCCCCCCN(C)C)ccc3n2CCC(C)C)cc1 | 0% | 19.5 µM | 20% | -58% | 24 µM | – | – | – | – | –
13 | CCOc1ccc(Cc2nc3cc(C(=O)NCCCN(C)C)ccc3n2CCC(C)C)cc1 | 11% | – | 65% | -5% | – | 71% | – | – | – | –
14 | CCOc1ccc(Cc2nc3cc(C(=O)N(CC)CC)ccc3n2CCCCN(C)CCCCn2c(Cc3ccc(OCC)cc3)nc3cc(C(=O)N(CC)CC)ccc32)cc1 | 5% | 57.5 µM | 14% | -40% | – | – | – | – | – | –
15 | CCCCn1c(Cc2ccc(OCC)cc2)nc2cc(C(=O)N(CC)CC)ccc21 | 198% | – | 162% | 67% | – | – | 174 nM | – | 1350 nM | 8

— ChEMBL document CHEMBL3352263, “Synthesis and biological evaluation of bivalent cannabinoid receptor ligands based on hCB₂R selective benzimidazoles reveal unexpected intrinsic properties” (Bioorg Med Chem, 2014)
